Laboratory results from paper PMC4786259 (PLoS ONE, 2016).

How the values were obtained:
[1] = test system: rats; design: method as in PMID 100809; settings: dose range 25–100 mg/kg; cited from earlier work
[2] = test system: male C57BL/6J mice; assay: PCP-induced hyperlocomotor activity (open field); assay type: in vivo
Protocol: (§1) Locomotor activity was assessed in AccuScan activity monitors (41X41X30 cm; AccuScan Instruments, Columbus, OH) with photocells spaced at 1.52 cm as described. In these monitors, the photocells create a grid of light beams, and breaks in the light beams (caused by the mouse) are recorded. The Accuscan software then calculates the total distance travelled (amongst other measurements) by analyzing the sequential order of beam breaks in the grid. Horizontal activity was measured as the total distance traveled in centimeters and was recorded in 5-minute bins. PCP-induced hyperlocomotor activity: mice (n = 16) previously acclimated to activity chambers were placed into the chambers for 15 minutes. […] Subsequently, mice were injected with 6.0 mg/kg PCP (i.p.) and returned to the chamber for 90 minutes. Induction of AMPH-induced hyperlocomotor activity followed an identical protocol except locomotor activity was recorded for a total of 75 minutes and 3 mg/kg AMPH was used (i.p.).

[3] = test system: mice; assay: Prepulse inhibition, pharmacological model using amphetamine; assay type: in vivo; settings: data not shown
[4] = biological target: α2B (Homo sapiens, UniProt P18089); assay: PDSP radioligand competition binding; settings: radioligand [^3H]Rauwolscine; read-out: In vitro Affinity
[5] = test system: male C57BL/6J mice; assay: AMPH-induced hyperlocomotor activity (open field); assay type: in vivo; settings: 3 mg/kg pre-treatment, 3 mg/kg AMPH; between 35–50 min, vs amphetamine alone
Protocol: as §1

[6] = biological target: α1B (Homo sapiens, UniProt P35368); assay: PDSP radioligand competition binding; settings: radioligand [^3H]Prazosin; read-out: In vitro Affinity
[7] = biological target: T1, 5-HT7 (Homo sapiens, UniProt P34969); assay: PDSP receptor functional assay; assay type: cell-based
T1 construct: expressed in transfected cells
T1 sequence (P34969 whole entry, species assumed): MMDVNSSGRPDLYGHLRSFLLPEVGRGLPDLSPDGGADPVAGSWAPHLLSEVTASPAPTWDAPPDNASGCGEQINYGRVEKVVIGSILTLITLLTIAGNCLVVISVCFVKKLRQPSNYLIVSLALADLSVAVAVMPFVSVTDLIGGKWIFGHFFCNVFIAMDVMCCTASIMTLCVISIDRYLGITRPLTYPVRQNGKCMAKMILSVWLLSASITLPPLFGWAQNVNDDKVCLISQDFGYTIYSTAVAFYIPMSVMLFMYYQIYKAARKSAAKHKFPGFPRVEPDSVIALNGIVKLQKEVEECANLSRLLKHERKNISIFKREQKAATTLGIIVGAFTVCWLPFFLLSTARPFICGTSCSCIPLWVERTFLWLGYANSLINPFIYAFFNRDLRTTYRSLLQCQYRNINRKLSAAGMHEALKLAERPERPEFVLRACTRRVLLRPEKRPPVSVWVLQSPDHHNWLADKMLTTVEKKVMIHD

α2B, sequence (P18089 whole entry): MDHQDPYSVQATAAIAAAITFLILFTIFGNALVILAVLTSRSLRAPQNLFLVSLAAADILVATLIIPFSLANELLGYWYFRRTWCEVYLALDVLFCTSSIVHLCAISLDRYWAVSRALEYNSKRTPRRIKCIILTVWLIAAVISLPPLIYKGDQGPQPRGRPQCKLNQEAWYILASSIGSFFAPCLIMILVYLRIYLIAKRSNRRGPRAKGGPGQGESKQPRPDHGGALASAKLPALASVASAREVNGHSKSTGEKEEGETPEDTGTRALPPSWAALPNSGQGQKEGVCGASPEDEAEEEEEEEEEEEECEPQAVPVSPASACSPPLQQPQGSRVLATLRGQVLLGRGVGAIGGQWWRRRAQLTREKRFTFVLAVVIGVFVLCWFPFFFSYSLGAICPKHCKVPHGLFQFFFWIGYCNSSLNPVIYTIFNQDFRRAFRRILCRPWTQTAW
α1B, sequence (P35368 whole entry): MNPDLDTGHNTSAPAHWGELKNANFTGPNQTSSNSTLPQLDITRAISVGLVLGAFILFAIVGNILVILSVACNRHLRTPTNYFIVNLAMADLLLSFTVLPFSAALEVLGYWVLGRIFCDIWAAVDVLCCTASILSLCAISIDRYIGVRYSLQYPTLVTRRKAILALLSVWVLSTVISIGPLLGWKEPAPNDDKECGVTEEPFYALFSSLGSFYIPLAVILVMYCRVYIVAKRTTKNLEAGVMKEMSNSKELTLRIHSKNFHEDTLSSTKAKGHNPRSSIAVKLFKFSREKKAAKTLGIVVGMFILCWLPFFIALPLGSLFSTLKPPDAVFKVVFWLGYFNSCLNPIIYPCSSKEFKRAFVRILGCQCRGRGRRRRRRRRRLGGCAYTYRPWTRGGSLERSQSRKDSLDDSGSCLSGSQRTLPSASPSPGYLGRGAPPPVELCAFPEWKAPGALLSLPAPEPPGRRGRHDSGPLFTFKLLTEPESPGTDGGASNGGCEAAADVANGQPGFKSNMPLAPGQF

Structure (SMILES): COc1cc2c3c(c1OC)-c1ccccc1C[C@H]3N(C)CC2 [nuciferine]
- hyperlocomotor effect of amphetamine [1]: inhibits the hyperlocomotor effect of amphetamine
- PCP-stimulated locomotor activity ([2]; 3 mg/kg i.p. before 6.0 mg/kg PCP): failed to significantly alter the PCP-induced hyperlocomotion
- PCP-stimulated locomotor activity ([2]; 10.0 mg/kg i.p. before 6.0 mg/kg PCP): significantly blocked
- PPI in the pharmacological model using amphetamine [3]: failed to normalize PPI
- Ki [4]: 687 nM
- amphetamine induced hyperlocomotion [5]: significantly higher motor activity
- Ki [6]: 2000 nM
- EC50 [7]: 150 nM
- Function Type [7]: Inverse agonist
- IC50 [7]: 150 nM
